In patent US20100311674A1, “PHARMACEUTICAL COMPOSITIONS WITH A MECHANISM OF MULTI-TARGET RECEPTOR RETROACTION FOR TREATING DEPRESSION” (Yu-Fen Chi, priority 2007, published 2010):

Columns and labels:
[1] = system: unpredictable long-term stimulus model; assay: Volume test of drinking sucrose, unpredictable long-term stimulus model (Experiment 8); type: in vivo, rat; conditions: 2 mg/kg/d into the stomach, 24 days; 1% sucrose for 1 hour
Procedure: (§1) Unpredictable long-term stimulus model: Health Wistar male rats, secondary, 240˜270 g of body weight, are purchased from Beijing Vital River Experimental Animal Technology Ltd. Co. (The quality certificate number: SOCK (JING) 2002-2003).
(§2) The above pharmaceuticals are prepared with 0.5% of sodium carboxymethylcellulose (CMC-Na) for feeding into the stomach. Benzylpenicillin sodium for injection is the product of North China Pharmaceutical Huasheng Co. Ltd. (Lot: S0511204), and norepinephrine (NE) and 5-hydrotryptamine (5-HT) standards are the products of Sigma Co. Other reagents are all marketed.
(§3) 8.4.1 Group division and administration of drug: The rats are grouped randomly into 6 groups. 1. False therapy group; 2. model group (control); 3. high dose of Embodiment 4 (60 mg/kg/d); 4. middle dose of Embodiment 4 (30 mg/kg/d); 5. low dose of Embodiment 4 (15 mg/kg/d); and 6. […]
8.5.5 Volume test of drinking sucrose: The sucrose-intake volume of the rats are compared. […] The drinking volumes are determined before the stimulus and after 3 weeks of the stimulus. […] The differences between the bottle weight before and after the rat drinking sucrose for 1 hour are measured and recorded, and the sucrose-drinking volume for each time is calculated. […]
(§4) 8.6 Statistic calculation: The experimental data are represented as […], and the experimental result is calculated as ANOVA by SPSS 11.5 statistic software.

[2] = system: ICR mice; assay: Resetpine-induced mouse body temperature decrease experiment (Experiment 2); type: in vivo
From the text: 2.1 Experimental animals: ICR mice, male, 22.0±2 g of body weight, secondary, are provided by the Experimental Animal Science Department of Capital Medical University, Beijing.
2.2 Experiment pharmaceuticals: The pharmaceutical of Embodiment 1 is provided by Beijing Wonner Biotech. Ltd. Co., Paroxetine (Paxil) is the product of Thong Mei Tianjin Smith Kline pharmaceuticals Co. Ltd., and Resetpine is the product of Guangdong BangMin Pharmaceutical Co., Ltd.
2.4 Dose designs: 1. High dose of Embodiment 1 (80 mg/kg/d); 2. middle dose of Embodiment 1 (40 mg/kg/d); and 3. low dose of Embodiment 1 (20 mg/kg/d).
(§5) 2.5.1 Group division and administration of drug: The mice are grouped randomly, and 10 mice are in each group. 1. High dose of Embodiment 1 (80 mg/kg, P.O., administered for 7 days); 2. middle dose of Embodiment 1 (40 mg/kg, P.O., administered for 7 days); 3. low dose of Embodiment 1 (20 mg/kg, P.O., administered for 7 days); 4.
2.5.2 Experimental method: After 1 hour of the last administration of drug on the eighth day, the mouse's anal temperature is determined. […] After 4 hours of injecting Resetpine, the mouse's anal temperature is determined once again. […]
2.5.3 Statistic calculation: The experimental data are represented as X±SD, and the experimental result is calculated as ANOVA by SPSS 11.5 statistic software.

[3] = system: ICR mice; assay: Resetpine-induced mouse body temperature decrease experiment (Experiment 6); type: in vivo
From the text: 6.1 Experimental animals: ICR mice, male, 22.0±2 g of body weight, secondary, are provided by the Experimental Animal Science Department of Capital Medical University, Beijing.
6.2 Experiment pharmaceuticals: The pharmaceutical of Embodiment 3 is provided by Beijing Wonner Biotech. Ltd. Co., Paroxetine (Paxil) is the product of Zhong Mei Tianjin Smith Kline pharmaceuticals Co. Ltd., and Resetpine is the product of Guangdong BangMin Pharmaceutical Co., Ltd.
6.4 Dose designs: 1. High dose of Embodiment 3 (80 mg/kg/d); 2. middle dose of Embodiment 3 (40 mg/kg/d); and 3. low dose of Embodiment 3 (20 mg/kg/d).
as §5, with “6.5.1 Group” for “2.5.1 Group”, “Embodiment 3” for “Embodiment 1”
6.5.2 Experimental method: After 1 hour of the last administration of drug on the eighth day, the mouse's anal temperature is determined. […] After 4 hours of injecting Resetpine, the mouse's anal temperature is determined once again. […]
6.5.3 Statistic calculation: The experimental data are represented as X±SD, and the experimental result is calculated as ANOVA by SPSS 11.5 statistic software.

[4] = system: unpredictable long-term stimulus model; assay: Rat swimming by compulsion, unpredictable long-term stimulus model (Experiment 8); type: in vivo; conditions: 2 mg/kg/d into the stomach, 24 days; 1 h after dose; last 5 minutes
Procedure: as §1, §2, §3
8.5.3 Rat swimming by compulsion: This experiment is proceeded for two days after the last administration of drug. […] After 1 hour of administration of drug, the rat is placed in the tank, and the time of non-movement of the rat for the last 5 minutes is recorded.
as §4

[5] = 3 mg/kg P.O. 7 days, 4 h after Resetpine 2 mg/kg i.p.

For Fc1ccc([C@@H]2CCNC[C@H]2COc2ccc3c(c2)OCO3)cc1 [Paroxetine], the Sucrose-intake volume [1] was 26.29 ± 4.87 g, the Decreased temperature [2, 5] was 2.38 ± 0.69 °C and the “Effect on reduced body temperature induced by Resetpine (in words)” value ([2]; high, middle and low doses of Embodiment 1, Paroxetine) was “decrease the reduced body temperature induced by Resetpine”. For the same molecule, the Decreased temperature [3, 5] was 2.38 ± 0.69 °C, the “Effect on reduced body temperature induced by Resetpine (in words)” value ([3]; high, middle and low doses of Embodiment 3, Paroxetine) was “decrease the reduced body temperature induced by Resetpine” and the Time of non-movement [4] was 31.38 ± 19.59 s.
